Data from patent EP0089143A1, “Diagnosis of kidney function” (AMERSHAM INTERNATIONAL plc, priority 1982, dated 1983).

How the values were obtained:
[1] = Biodistribution and renal clearance after injection into rats (bladder activity over time, dissection at 2 hr); type: in vivo; settings: for % in bladder of that at 2 hrs.: group value (4-8 animals)
Experimental: Solutions of complexes ^*1 and ^*2 from Example 1 were injected into rats and the biodistribution pattern noted. The results of these experiments in rats are summarised in Table 1 below, comparing the data on ^*1 and ^*2 with earlier data on TDG-Tc-99m, Hippuran -1-131 and DTPA-Tc-99m under identical conditions. In all cases, data from animal experiments was used only when the renal performance appeared "normal", i.e. no unilateral or bilateral renal retention. Data was also rejected in cases of significant retention of activity at the injection site.
The solution was filtered through a 0.22 micron membrane filter prior to administration to rats.
The solution was filtered through a 0.22 micron membrane filter prior to adminstration to rats.
A sealed nitrogen filled vial, containing the freeze dried formulation of 20mg TDG, 0.15 mg SnF2, 1 mg NaF and 0.5 mg sodium nitrate was treated with 2 ml of eluate from a technetium generator (6mCi/ml). The vial was allowed to stand at ambient temperature for 10 minutes, then heated in a boiling water bath for 15 minutes.

[2] = removal from the blood in a single pass through the kidney; cited from earlier work
[3] = dissection at 2 hr, group value

O=C(O)CNC(=O)c1ccccc1[131I] [Hippuran-I-131, sodium iodo- hippurate, reference compound]
hepatobiliary excretion [1]: some hepatobiliary excretion
Dissection at 2 hr; % of injected dose: Bladder [1, 3]: 93.0 % of injected dose
Dissection at 2 hr; % of injected dose: Kidneys [1, 3]: 0.2 % of injected dose
Dissection at 2 hr; % of injected dose: Liver [1, 3]: 0.2 % of injected dose
% in bladder of that at 2 hrs. ([1]; time 5 min): 33.4%
% in bladder of that at 2 hrs. ([1]; time 10 min): 53.8%
% in bladder of that at 2 hrs. ([1]; time 15 min): 63.9%
% in bladder of that at 2 hrs. ([1]; time 20 min): 72.4%
% in bladder of that at 2 hrs. ([1]; time 25 min): 80.5%
% in bladder of that at 2 hrs. ([1]; time 30 min): 85.0%
% in bladder of that at 2 hrs. ([1]; time 60 min): 93.0%
removed in a single pass [2]: About 80%
